Laboratory results published in patent US11872225B2, “Pyruvate kinase modulators and use thereof” (Agios Pharmaceuticals, Inc., priority 2017, dated 2024).

Target: wild type PKM2 (Homo sapiens, UniProt P14618)
Test: PKM2 Assay (LDH/NADH-coupled, absorbance at 340 nm)
Assay type: biochemical
Details: wild type PKM2 activation; 60 min preincubation at 25° C.; ADP 0.4 mM, PEP 0.11 mM; read-out: PKM2 WT AC50
Protocol: A compound described herein may be tested for its ability to activate PKM2. For simplicity, the activation activity of these compounds is represented as an AC50 in Table 2. In Tables 2, a compound described herein may have an AC50 of wild type PKM2.
PKM2 enzyme stock solution was diluted to prepare a 1.11× Reaction Mix (without ADP). 1 μL of test compound was first added to the wells followed by 40 μL of 1.11× Reaction Mix (without ADP) and incubated at room temperature (25° C.) for 60 min. The reaction was initiated with 10 μL ADP (0.4 mM final concentration), bringing the final Reaction Mix to 1×, and the reaction progress was measured as changes in absorbance at 340 nm wavelength at room temperature.
Test compound preparation: Test compounds were prepared at 50× final concentration in DMSO. 1 to 3 dilutions were made for 11 points (for example 50 μL of 5000 μM compound was added to 100 μL 100% DMSO to yield a 1667 μM, 50 μL of this added to 100 μL DMSO to yield 556 μM, and so forth). The compounds were added to the assay as a 1 to 50 dilution (1 μL in 50 μL) to yield a top concentration of 100 μM, decreasing 3-fold for 11 points.
Reaction Mix: PKM2 (5 ng/well, 0.1 μg/ml), ADP (0.4 mM), PEP (0.11 mM), NADH (180 μM), LDH (0.005 U/μL, Sigma #L3888), 1 mM DTT, 0.03% BSA in 1× Reaction Buffer
Reaction Buffer: 100 mM KCl, 50 mM Tris pH 7.5, 5 mM MgCl2.

Chain of wild type PKM2 (P14618 whole entry): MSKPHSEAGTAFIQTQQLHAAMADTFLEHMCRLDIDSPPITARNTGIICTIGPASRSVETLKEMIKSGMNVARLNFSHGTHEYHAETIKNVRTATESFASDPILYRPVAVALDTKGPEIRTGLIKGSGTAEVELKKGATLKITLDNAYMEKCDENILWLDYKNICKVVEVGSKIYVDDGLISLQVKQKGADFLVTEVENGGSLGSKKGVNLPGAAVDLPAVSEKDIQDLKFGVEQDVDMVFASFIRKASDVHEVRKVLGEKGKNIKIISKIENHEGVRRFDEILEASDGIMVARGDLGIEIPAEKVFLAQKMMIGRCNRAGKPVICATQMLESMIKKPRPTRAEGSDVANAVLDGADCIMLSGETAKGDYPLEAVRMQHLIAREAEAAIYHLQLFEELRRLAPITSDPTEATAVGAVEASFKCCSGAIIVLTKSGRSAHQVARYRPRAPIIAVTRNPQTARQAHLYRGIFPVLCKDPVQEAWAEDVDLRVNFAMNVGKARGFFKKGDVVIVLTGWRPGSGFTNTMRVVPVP

| AC50 [nM] | Structure (SMILES) |
| --- | --- |
| < 300 | Cn1c2nc(Cc3cc[nH]n3)sc2c2cnn(CCc3cccc(N)n3)c(=O)c21 [Compound 126] |
| 301 to 800 | Cc1nc2c(s1)c1cnn(Cc3cccc4cn[nH]c34)c(=O)c1n2C [Compound 23] |
| > 800 | Cn1c2nc(Cc3c[nH]nn3)sc2c2cnn(Cc3ccccc3)c(=O)c21 [Compound 97] |
| < 300 | CNCc1nc2c(s1)c1cnn(Cc3cccc4[nH]ncc34)c(=O)c1n2C [Compound 46] |
| 301 to 800 | Cc1nc2c(s1)c1cnn(Cc3cccc(F)n3)c(=O)c1n2C [Compound 9] |
| > 800 | Cc1nc2c(s1)c1cnn(Cc3c[nH]cn3)c(=O)c1n2C [Compound 12] |
| > 800 | Cn1c2nc(Cc3cnc(O)nc3)sc2c2cnn(Cc3cccc4[nH]ncc34)c(=O)c21 [Compound 81] |
| < 300 | Cn1c2nc(Cc3cc[nH]n3)sc2c2cnn(Cc3cscn3)c(=O)c21 [Compound 87] |
| < 300 | Cn1c2nc(C#N)sc2c2cnn(Cc3csc(N)n3)c(=O)c21 [Compound 54] |
| 301 to 800 | Cc1nc2c(s1)c1cnn(Cc3ccc4nn[nH]c4c3)c(=O)c1n2C [Compound 6] |
| < 300 | Cn1c2nc(Cc3csc(CO)n3)sc2c2cnn(Cc3cc[nH]n3)c(=O)c21 [Compound 90] |
| > 800 | Cn1cc(CC(N)=O)c(Cn2ncc3c4sc(Cc5cc[nH]n5)nc4n(C)c3c2=O)n1 [Compound 125] |
| < 300 | Cn1ccc(Cc2nc3c(s2)c2cnn(Cc4ccn[nH]4)c(=O)c2n3C)n1 [Compound 110] |
| < 300 | Cn1c2nc(Cc3cc[nH]n3)sc2c2cnn(Cc3ncns3)c(=O)c21 [Compound 94] |
| < 300 | Cn1ccc(Cn2ncc3c4sc(Cc5cscn5)nc4n(C)c3c2=O)n1 [Compound 96] |
| > 800 | Cn1c2nc(Nc3ccccc3)sc2c2cnn(Cc3cccc4[nH]ncc34)c(=O)c21 [Compound 52] |
| < 300 | Cn1c2nc(Cc3ncsc3F)sc2c2cnn(Cc3cc[nH]n3)c(=O)c21 [Compound 112] |
| > 800 | C=CCn1ncc2c3sc(Cc4ccccn4)nc3n(C)c2c1=O [Compound 133] |
| < 300 | Cn1ccc(Cn2ncc3c4sc(C(=O)c5cc[nH]n5)nc4n(C)c3c2=O)n1 [Compound 122] |
| < 300 | Cn1c2nc(Cc3cc[nH]n3)sc2c2cnn(Cc3csc(CO)n3)c(=O)c21 [Compound 68] |
| > 800 | Cn1c2nc(Cn3cnnc3)sc2c2cnn(Cc3cc[nH]n3)c(=O)c21 [Compound 106] |
| > 800 | Cn1c2nc(C(c3cccc4[nH]ncc34)S(=O)(=O)c3ccccc3)sc2c2cnn(Cc3cccc4[nH]ncc34)c(=O)c21 (centres unmarked) [Compound 50] |
| < 300 | Cn1c2nc(Cn3ccnc3)sc2c2cnn(Cc3cccc4[nH]ncc34)c(=O)c21 [Compound 99] |
| 301 to 800 | CC(=O)Nc1ccc(F)c(Cn2ncc3c4sc(Cc5cnn(C)c5)nc4n(C)c3c2=O)n1 [Compound 127] |
| 301 to 800 | Cn1c2nc(Cc3cc[nH]n3)sc2c2cnn(Cc3n[nH]c(=O)[nH]3)c(=O)c21 [Compound 131] |

| AC50 [nM] | Structure (SMILES) |
| --- | --- |
| > 800 | Cn1c2nc([S+](C)[O-])sc2c2cnn(Cc3cnc(N)nc3)c(=O)c21 (centres unmarked) [Compound 34] |
| 301 to 800 | CCOC(=O)c1cccc(Cn2ncc3c4sc(C)nc4n(C)c3c2=O)c1 [Compound 4] |
| > 800 | Cn1c2nc(-n3cnc(CS(=O)(=O)c4ccccc4)c3)sc2c2cnn(Cc3cccc4[nH]ncc34)c(=O)c21 [Compound 67] |
| > 800 | O=c1c2c(cnn1Cc1ccccc1)c1sc(Cc3ccccn3)nc1n2-c1ccccc1 [Compound 140] |
| < 300 | COc1cccc(Cn2ncc3c4sc(S(=O)(=O)c5ccccc5)nc4n(C)c3c2=O)c1 [Compound 10] |
| < 300 | Cn1c2nc(Cc3cc[nH]n3)sc2c2cnn(Cc3nccc(N)n3)c(=O)c21 [Compound 135] |
| > 800 | CC(=O)c1cccc(CC(c2cc[nH]n2)c2nc3c(s2)c2cnn(Cc4cccc(C(C)=O)c4)c(=O)c2n3C)c1 (centres unmarked) [Compound 71] |
| > 800 | Cc1nc2c(s1)c1cnn(CCO)c(=O)c1n2C [Compound 25] |
| > 800 | COCc1cn(C)nc1Cn1ncc2c3sc(Cc4cc[nH]n4)nc3n(C)c2c1=O [Compound 120] |
| < 300 | Cn1c2nc(Cc3csc(CO)n3)sc2c2cnn(Cc3nccs3)c(=O)c21 [Compound 93] |
| < 300 | Cc1cccc(Cn2ncc3c4sc(Cc5cc[nH]n5)nc4n(C)c3c2=O)n1 [Compound 73] |
| 301 to 800 | Cn1c2nc([S+](C)[O-])sc2c2cnn(Cc3ccc(C#N)cc3)c(=O)c21 (centres unmarked) [Compound 27] |
| > 800 | Cn1c2nc([S+](C)[O-])sc2c2cnn(Cc3ccc(C(N)=O)cc3)c(=O)c21 (centres unmarked) [Compound 37] |
| < 300 | C=Cc1nc2c(s1)c1cnn(Cc3cccc(OC)c3)c(=O)c1n2C [Compound 11] |
| 301 to 800 | Cn1c2nc([S+](C)[O-])sc2c2cnn(Cc3ccnc(N)n3)c(=O)c21 (centres unmarked) [Compound 36] |
| > 800 | Cn1c2nc(NC(=O)Cc3cc[nH]n3)sc2c2cnn(Cc3cccc4[nH]ncc34)c(=O)c21 [Compound 64] |
| > 800 | Cn1c2nc(Cc3ccc(C#N)cc3)sc2c2cnn(Cc3cccc4[nH]ncc34)c(=O)c21 [Compound 33] |
| < 300 | Cn1c2nc(Cc3cc[nH]n3)sc2c2cnn(Cc3c[nH]nn3)c(=O)c21 [Compound 89] |
| > 800 | Cc1nc2c(s1)c1cnn(Cc3cccc(C(=O)O)c3)c(=O)c1n2C [Compound 5] |
| < 300 | Cn1c2nc(Cc3cnoc3)sc2c2cnn(Cc3cccc4[nH]ncc34)c(=O)c21 [Compound 65] |
| > 800 | Cc1nc2c(s1)c1cnn(CO)c(=O)c1n2C [Compound 7] |
| > 800 | Cn1c2nc(Cn3ccnc3)sc2c2cnn(Cc3ccnc(N)n3)c(=O)c21 [Compound 144] |
| > 800 | Cc1nc2c(s1)c1cnn(CCOCCO)c(=O)c1n2C [Compound 20] |
| > 800 | Cn1cc(C(N)=O)c(Cn2ncc3c4sc(Cc5cc[nH]n5)nc4n(C)c3c2=O)n1 [Compound 116] |
| > 800 | Cn1c2nc(Cc3cc[nH]n3)sc2c2cnn(Cc3ncsc3C(F)(F)F)c(=O)c21 [Compound 95] |

| AC50 [nM] | Structure (SMILES) |
| --- | --- |
| < 300 | Cn1ccc(Cn2ncc3c4sc(Cc5cc[nH]n5)nc4n(C)c3c2=O)n1 [Compound 83] |
| < 300 | Cn1c2nc(Cc3cc[nH]n3)sc2c2cnn(Cc3cncs3)c(=O)c21 [Compound 70] |
| < 300 | Cc1nc2c(s1)c1cnn(Cc3cccc4c3cnn4C)c(=O)c1n2C [Compound 28] |
| < 300 | COc1ncc(Cc2nc3c(s2)c2cnn(Cc4cccc5[nH]ncc45)c(=O)c2n3C)cn1 [Compound 80] |
| < 300 | Cn1c2nc(Cc3cc[nH]n3)sc2c2cnn(Cc3cccc4[nH]ncc34)c(=O)c21 [Compound 31] |
| < 300 | COC(=O)C(C(=O)OC)c1nc2c(s1)c1cnn(Cc3cccc4[nH]ncc34)c(=O)c1n2C [Compound 43] |
| < 300 | Cn1ccc(Cn2ncc3c4sc(Cc5cccc(N)n5)nc4n(C)c3c2=O)n1 [Compound 109] |
| < 300 | Cn1c2nc(Cc3cc[nH]n3)sc2c2cnn(Cc3ccn[nH]3)c(=O)c21 [Compound 63] |
| 301 to 800 | Cn1c2nc(Cc3cc[nH]n3)sc2c2cnn(Cc3ccc(C(N)=O)cn3)c(=O)c21 [Compound 119] |
| > 800 | COc1cccc(Cn2ncc3c4sc(CC5CCCCC5)nc4n(C)c3c2=O)c1 [Compound 19] |
| 301 to 800 | Cn1c2nc([S+](C)[O-])sc2c2cnn(Cc3ccnc(N)c3)c(=O)c21 (centres unmarked) [Compound 29] |
| 301 to 800 | Cn1c2nc(Cn3cnnc3)sc2c2cnn(Cc3cccc4[nH]ncc34)c(=O)c21 [Compound 102] |
| < 300 | Cn1c2nc(Cc3cccc(N)n3)sc2c2cnn(Cc3cc[nH]n3)c(=O)c21 [Compound 101] |
| > 800 | CC(=O)NC(c1cc[nH]n1)c1nc2c(s1)c1cnn(Cc3cccc4[nH]ncc34)c(=O)c1n2C (centres unmarked) [Compound 62] |
| > 800 | Cn1c2nc(Cc3ccc(Cl)nc3)sc2c2cnn(Cc3cccc4[nH]ncc34)c(=O)c21 [Compound 55] |
| > 800 | CC(=O)Nc1ccc(F)c(Cn2ncc3c4sc(Cn5ccnc5)nc4n(C)c3c2=O)n1 [Compound 130] |
| 301 to 800 | Cn1c2nc(Cc3cc[nH]n3)sc2c2cnn(Cc3ccc(C#N)cn3)c(=O)c21 [Compound 118] |
| > 800 | Cn1c2nc(Cn3cncn3)sc2c2cnn(Cc3ccnc(N)n3)c(=O)c21 [Compound 143] |
| > 800 | CSc1nc2c(s1)c1cnn(Cc3ccnc(=O)[nH]3)c(=O)c1n2C [Compound 35] |
| < 300 | Cn1c2nc(Cc3cc[nH]n3)sc2c2cnn(Cc3ccnc(N)n3)c(=O)c21 [Compound 134] |
| < 300 | Cn1c2nc(Cc3cnn[nH]3)sc2c2cnn(Cc3cccc4[nH]ncc34)c(=O)c21 [Compound 86] |
| 301 to 800 | Cn1c2nc(Cc3cc[nH]n3)sc2c2cnn(Cc3cccc4c3NS(=O)(=O)N4)c(=O)c21 [Compound 98] |
| < 300 | Cn1c2nc(Cc3cc[nH]n3)sc2c2cnn(Cc3cccc4nn[nH]c34)c(=O)c21 [Compound 77] |
| < 300 | Cn1c2nc(Cc3c[nH]nn3)sc2c2cnn(Cc3cc[nH]n3)c(=O)c21 [Compound 100] |
